The record followed here is patent US8372412B2, “Bioassay and peptides for use therein” (Rapid Biosensor Systems Limited, priority 2005, dated 2013).

In data set [1] the test system is antisera (from rabbit) to the p3 18-mer (SEQ ID 11). Put plainly: Targeted Epitope ELISA (competitive ELISA against plate-coated p3 18-mer P779). The settings on record: for binding to the antisera relative to the p3 18-mer: competitive ELISA as before, 6-mers and re-tested 9-mer P782-10. It is filed as binding. As to the method: (§1) These peptides, along with the p3 18-mer (SEQ ID 11) were screened against antisera (from rabbit) to the p3 18-mer (SEQ ID 11). The screen utilized the competitive ELISA (Enzyme-linked immunosorbant assay) technique, which was used to assess the relative binding affinities of the 9-mer peptides to the 18-mer peptide.
(§2) Briefly, the assay involved binding (coating) the p3 18-mer (P779, SEQ ID 11) to ELISA plates, followed by incubation with variables amounts of competing ligand (9-mers, SEQ ID 1-10) with the antisera (1:250 dilution). The level of binding of the antisera to p3 18-mer (P779, SEQ ID 11) was indicated by treatment with goat anti-rabbit peroxidase conjugated antibody and then by addition of a chromogenic substrate ABTS (2,2-azino-di-[3-ethylbenzthiazoline sulphonate]) and hydrogen peroxide where upon a green colour developed which was recorded as an optical density (absorbance) on a plate reader. The colour development is proportional to the level of binding of the primary antisera bound to the plate.
A test ELISA was performed in order to ascertain the concentrations of coating peptide and competing peptides for the ELISA experiments, comprising a competitive ELISA of 9-mer P782-1 ([…])—SEQ ID 1—against 18-mer P779 ([…])—SEQ ID 11 (Mustafa, A. S. et al, supra). This 9-mer was chosen as it also overlaps with the p2 18-mer ([…])—SEQ ID 12. […] ELISA plates were coated with 2 μM solution of p3 18-mer (P779)—SEQ ID 11—and used 500 μM solutions of competing peptides, which were then subjected to four-fold serial dilution.
A Targeted Epitope ELISA was then designed to test the importance of the C-terminal region of the epitope on binding to the antisera. Two 6-mers were synthesized, P782-11 (GNNSPA)—SEQ ID 13—and P782-12 (NNSPAV)—SEQ ID 14, which are truncated forms of their respective 9-mers and subjected these to competitive ELISA as before and also re-tested the 9-mer P782-10 (SEQ ID 10) identified as a significant epitope in the Epitope Mapping ELISA.

The test system is the same in data set [2]. The experiment in a line: Epitope Mapping ELISA (competitive ELISA against plate-coated p3 18-mer P779). It is filed as binding. The settings on record: plates coated with 2 μM P779, competing peptides 500 μM, four-fold serial dilution, antisera 1:250. As to the method: as §1, §2
A test ELISA was performed in order to ascertain the concentrations of coating peptide and competing peptides for the ELISA experiments, comprising a competitive ELISA of 9-mer P782-1 ([…])—SEQ ID 1—against 18-mer P779 ([…])—SEQ ID 11 (Mustafa, A. S. et al, supra). This 9-mer was chosen as it also overlaps with the p2 18-mer ([…])—SEQ ID 12. […]

A short description of data set [3]: Heat stability of peptide variants. It is filed as physicochemical. The settings on record: C-terminal variants of SGGNNSPA-X; no method or data given.

Entries after “also recorded” stand apart in the source; their conditions may differ.

For “SGGNNSPAV (listed as Mycobacterium tuberculosis) [P782-10]”, the “binding to the antisera relative to the p3 18-mer” value in data set [1] was “bound to the antisera as tightly as the p3 18-mer peptide P779”; in data set [2], “bound to the antisera as tightly as the p3 18-mer peptide”. In the case of “NNSPAV (listed as Mycobacterium tuberculosis) [P782-12]”, in data set [1] (competitive ELISA, relative binding affinity), the “binds to the antisera less tightly relative to either 9-mer P782-10 or 18-mer P779” value is reported as 1.99 fold. “SGGNNSPAA (Modification (at position 9) of native Mycobacterium tuberculosis sequence) [SEQ ID 15]”: in data set [3], the heat stability entry was “particularly good Leu-heat stability; also recorded: increased heat stability”. “QSGGNNSPA (listed as Mycobacterium tuberculosis) [P782-9]”: the “binding to the antisera relative to the p3 18-mer” value in data set [2] is “no significant binding”.

“GNNSPA (listed as Mycobacterium tuberculosis) [P782-11]”: in data set [1], the “binding to the antisera relative to the p3 18-mer” value is “did not bind to the antisera”.
